Reference: ChEMBL document CHEMBL3396984, “Structure-activity relationship study of diphenylamine-based estrogen receptor (ER) antagonists” (Bioorg Med Chem, 2015)
Activity calls are given as the source filed them. The rule behind the calls is not given here.

What was measured:
MCF7 [1] = assay: Antiproliferative activity against human MCF7 cells after 5 days by WST-8 assay; type: functional, cell-based
MCF7 [2] = assay: Estrogenic activity in human MCF7 cells; type: functional, cell-based
MCF7 [3] = assay: Ratio of tamoxifen IC50 to compound IC50 for human MCF7 cells; type: functional
[4] = Homo sapiens, MCF7, 120 h, read-out: IC50

Row | SMILES | Activity (MCF7 [1]) | IC50 (MCF7 [1]; [4]) [nM] | Activity (MCF7 [2]) | Ratio IC50 (MCF7 [3]) | IC50 (MCF7 [1]; mcf7)
1 | CCCCCCN(c1ccc(O)cc1)c1ccc(OCCN(CC)CC)cc1 | Dose-dependent effect | 1400 | inactive |  | 
2 | O=S(=O)(c1ccccc1)N(c1ccc(O)cc1)c1ccc(OCCN2CCCC2)cc1 | Dose-dependent effect | 500 | inactive |  | 
3 | CCCCCCN(c1ccc(O)cc1)c1ccc(OCCN2CCCCC2)cc1 | Dose-dependent effect | 130 | inactive | 10 | 
4 | CCC(=C(c1ccc(O)cc1)c1ccc(OCCN(C)C)cc1)c1ccccc1 | Dose-dependent effect | 8900 |  |  | 
5 | CCN(CC)CCOc1ccc(N(c2ccc(O)cc2)S(=O)(=O)c2ccccc2)cc1 | Dose-dependent effect | 1300 | inactive |  | 
6 | CCCCCCN(c1ccc(O)cc1)c1ccc(OCCN2CCCC2)cc1 | Dose-dependent effect | 2700 | inactive |  | 
7 | Oc1ccc(N(Cc2ccccc2)c2ccc(OCCN3CCCCCC3)cc2)cc1 | Dose-dependent effect | 660 | inactive |  | 
8 | CCCCCCN(c1ccc(O)cc1)c1ccc(OCCN(C)C)cc1 | Dose-dependent effect | 2400 | inactive |  | 
9 | CN(C)CCCOc1ccc(N(Cc2ccccc2)c2ccc(O)cc2)cc1 | Dose-dependent effect | 2800 | inactive |  | 
10 | CCCCCCN(c1ccc(O)cc1)c1ccc(OCCCN(C)C)cc1 | Dose-dependent effect |  | inactive |  | Not Active
11 | CC/C(=C(\c1ccccc1)c1ccc(OCCN(C)C)cc1)c1ccccc1 [TAMOXIFEN] | Dose-dependent effect | 2100 |  |  | 
12 | CCN(CC)CCOc1ccc(N(Cc2ccccc2)c2ccc(O)cc2)cc1 | Dose-dependent effect | 1900 | inactive |  | 
13 | Oc1ccc(N(Cc2ccccc2)c2ccc(OCCN3CCCCC3)cc2)cc1 | Dose-dependent effect | 800 | inactive |  | 
14 | O=S(=O)(c1ccccc1)N(c1ccc(O)cc1)c1ccc(OCCN2CCCCC2)cc1 | Dose-dependent effect | 320 | inactive |  | 
15 | Oc1ccc(N(Cc2ccccc2)c2ccc(OCCN3CCCC3)cc2)cc1 | Dose-dependent effect | 1300 | inactive |  | 
16 | CN(C)CCCOc1ccc(N(c2ccc(O)cc2)S(=O)(=O)c2ccccc2)cc1 | Dose-dependent effect | 2200 | inactive |  | 
17 | CCCCCCN(c1ccc(O)cc1)c1ccc(OCCN2CCCCCC2)cc1 | Dose-dependent effect | 1400 | inactive |  | 
18 | CN(C)CCOc1ccc(N(Cc2ccccc2)c2ccc(O)cc2)cc1 | Dose-dependent effect | 4400 | inactive |  | 
19 | CN(C)CCOc1ccc(N(c2ccc(O)cc2)S(=O)(=O)c2ccccc2)cc1 | Dose-dependent effect | 9300 | inactive |  | 
